Test results taken from patent US20220411880A1, “METHODS AND COMPOSITIONS FOR DIAGNOSING AND TREATING CHRONIC MYELOMONOCYTIC LEUKEMIA (CMML)” (INSERM (INSTITUT NATIONAL DE LA SANTÉET DE LA RECHERCHE …, priority 2019, published 2022).

How the values were obtained:
[1] = tested on: ABCA1 mutant-transduced Tet2 deficient BM cells; assay: [3H]-thymidine proliferation assay in ex vivo BM liquid culture; type: cell-based, mouse; settings: FIG. 5E
Text: FIG. 5. Cholesterol accumulation couples ABCA1 invalidation and Tet2 deficiency to IL-3 receptor β signaling hypersensitivity. (A-D) Quantification of BODIPY staining by flow cytometry expressed as mean fluorescence intensity (MFI) as a surrogate of cellular cholesterol neutral lipid per cell in BM hematopoietic stem (A and C) and progenitor (B and D) cells (i.e, LSKs, MEPs, CMPs and GMPs) of recipient mice transplanted with Mx1-Cre^+, Mx1-Cre^+ Abca1^fl/fl, MX1-Cre^+Tet2^fl/fl and Mx1-Cre^+Tet2^fl/flAbca1^fl/fl BM (A and B) or control and Mx1-Cre^+Tet2^fl/fl BM expressing empty, ABCA1-WT or ABCA1 mutants (C and D). (E) Expression of mRNA was normalized to m36B4. mRNA levels were expressed as percentage over WT whole BM cells. Proliferation rates were determined after 2 h [^3H]-thymidine pulse labeling in BM cells from empty, ABCA1-WT and ABCA1 mutants-transduced animals on a Tet2 deficient background that were grown for 72 h in liquid culture in the presence or absence of 6 ng/mL IL-3 and 2 ng/mL GM-CSF and the indicated chemical compounds.
FIG. 6. […] (A) Proliferation rates were determined after 2 h [^3H]-thymidine pulse labeling in BM cells from empty, ABCA1-WT and ABCA1 mutants-transduced animals on a Tet2 deficient background that were grown for 72 h in liquid culture in the presence or absence of 50 μg/mL PEG-HDL. […]

[2] = tested on: ABCA1 mutant-transduced Tet2 deficient BM cells; assay: cell viability of treated ex vivo BM cultures; type: cell-based, mouse; settings: same treated BM cultures; data not shown
Experimental: Briefly, femurs were flushed with ice-cold PBS and centrifugated for 5 min at 1,000 rpm to extract BM cells. After red blood cell lysis, over 90% of BM cells were CD45-positive cells of hematopoietic origin (Westerterp et al., 2012). Primary BM cells were resuspended in IMDM (Gibco) containing 10% FCS (STEMCELL Technologies) and cultured for 1 h in tissue culture flasks to remove adherent cells, including macrophages. The transduction rate of control, ABCA1-WT and ABCA 1-mutant lentiviral particles was determined after BM transplantation as described above. Suspended cells were then normalized to the same concentration and cultured for 72 h in the presence of 6 ng/mL IL-3 and 2 ng/mL GM-CSF (R&D Systems). In some experiments, the cyclodextrin (Sigma) was used at the final concentration of 5 mM, tempol (EMD Millipore) at 4 mM and anti-IL3Rbeta AF549 antibody (R&D Systems) at 50 μg/mL.

Compound	basal proliferation and IL-3/GM-CSF hypersensitivity of ABCA1 mutants-transduced Tet2 deficient BM cells ([1]; tempol 4 mM, 72 h culture with or without 6 ng/mL IL-3 and 2 ng/mL GM-CSF)	cell viability [2]	proliferation of ABCA1 mutant-transduced Tet2 deficient BM cells ([1]; 72 h culture in presence or absence of IL-3 and GM-CSF, cyclodextrin 5 mM, antibody 50 μg/mL, effect similar to ABCA1-WT overexpression)
CC1(C)CC(O)CC(C)(C)N1[O] [tempol]	prevented the basal proliferation and IL-3/GM-CSF hypersensitivity		
cyclodextrin		without affecting cell viability	prevented the proliferation
